Columns and labels:
Test in all cases: Test E greenhouse herbicide test, pre- and postemergence
Format in all cases: in vivo
[1] = test system: arrowleaf sida (Sida rhombifolia)
Summary of the method: (§1)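 Pre- and postemergence sprays, same solvent–surfactant formulation. Substrate: silt loam (pre), peat-based mix (post, 1–4 leaf, 2–18 cm). Readout: visual control rating 0–100 against controls at 14–21 d.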

[2] = test system: barnyardgrass (Echinochloa crus-galli)
Summary of the method: as §1

corn (Zea mays) = test system: corn (Zea mays)
Summary of the method: as §1

[3] = test system: crabgrass, large (large crabgrass, Digitaria sanguinalis); settings: Preemergence
Summary of the method: as §1

[4] = test system: dayflower (Virginia (VA) dayflower, Commelina virginica)
Summary of the method: as §1

[5] = test system: foxtail, giant (giant foxtail, Setaria faberii); settings: Preemergence
Summary of the method: as §1

[6] = test system: goosegrass (Eleusine indica); settings: Preemergence
Summary of the method: as §1

[7] = test system: horseweed (Conyza canadensis); settings: Postemergence
Summary of the method: as §1

[8] = test system: lambsquarters (Chenopodium album); settings: Preemergence
Summary of the method: as §1

[9] = test system: momingglory (Ipomoea coccinea); settings: Preemergence
Summary of the method: as §1

[10] = test system: nightshade (eastern black nightshade, Solanum ptycanthum); settings: Preemergence
Summary of the method: as §1

[11] = test system: panicum, fall (fall panicum, Panicum dichotomiflorum)
Summary of the method: as §1

[12] = test system: pigweed, palmer (palmer pigweed, Amaranthus palmeri)
Summary of the method: as §1

[13] = test system: ragweed (common ragweed, Ambrosia elatior)
Summary of the method: as §1

[14] = test system: sandbur (southem sandbur, Cenchrus echinatus)
Summary of the method: as §1

[15] = test system: surinam grass (Brachiaria decumbens); settings: Preemergence
Summary of the method: as §1

[16] = test system: velvetleaf (Abutilon theophrasti); settings: Preemergence
Summary of the method: as §1

[17] = 62 g ai/ha, Postemergence, scale 0 to 100 (0 no effect, 100 complete control)
[18] = 62 g ai/ha, Preemergence, scale 0 to 100 (0 no effect, 100 complete control)
[19] = 125 g ai/ha, Postemergence, scale 0 to 100 (0 no effect, 100 complete control)
[20] = 125 g ai/ha, Preemergence, scale 0 to 100 (0 no effect, 100 complete control)
[21] = 250 g ai/ha, Postemergence, scale 0 to 100 (0 no effect, 100 complete control)
[22] = Postemergence, 31 g ai/ha, visual, scale 0 no effect to 100 complete control
[23] = Preemergence, 31 g ai/ha, scale 0 to 100, 0 no effect, 100 complete control
[24] = Preemergence, 250 g ai/ha, visual, scale 0 no effect to 100 complete control
[25] = 62 g ai/ha, scale 0 to 100 (0 no effect, 100 complete control)
[26] = 125 g ai/ha, scale 0 to 100 (0 no effect, 100 complete control)
[27] = 31 g ai/ha, scale 0 to 100, 0 no effect, 100 complete control
[28] = 250 g ai/ha, visual, scale 0 no effect to 100 complete control

CCOC(=O)Oc1c(C)nn(C)c(=O)c1-c1c(C)sc2c(C)cc(C)cc12 [Compound 83]
Plant response rating, Arrowleaf Sida [1, 17]: 50 | Plant response rating, Arrowleaf Sida [1, 18]: 25 | Plant response rating, Arrowleaf Sida [1, 19]: 60 | Plant response rating, Arrowleaf Sida [1, 20]: 35 | Plant response rating, Arrowleaf Sida [1, 21]: 60 | Plant response rating, Arrowleaf Sida [1, 22]: 50 | Plant response rating, Arrowleaf Sida [1, 23]: 15 | Plant response rating, Arrowleaf Sida [1, 24]: 65 | Plant response rating, Barnyardgrass [2, 17]: 50 | Plant response rating, Barnyardgrass [2, 18]: 30 | Plant response rating, Barnyardgrass [2, 19]: 40 | Plant response rating, Barnyardgrass [2, 20]: 35 | Plant response rating, Barnyardgrass [2, 21]: 50 | Plant response rating, Barnyardgrass [2, 22]: 40 | Plant response rating, Barnyardgrass [2, 23]: 0 | Plant response rating, Barnyardgrass [2, 24]: 75 | Plant response rating, Corn (corn (Zea mays); [17]): 0 | Plant response rating, Corn (corn (Zea mays); [18]): 0 | Plant response rating, Corn (corn (Zea mays); [19]): 0 | Plant response rating, Corn (corn (Zea mays); [20]): 0 | Plant response rating, Corn (corn (Zea mays); [21]): 10 | Plant response rating, Corn (corn (Zea mays); [22]): 0 | Plant response rating, Corn (corn (Zea mays); [23]): 0 | Plant response rating, Corn (corn (Zea mays); [24]): 0 | Plant response rating, Crabgrass, Large [3, 25]: 5 | Plant response rating, Crabgrass, Large [3, 26]: 40 | Plant response rating, Crabgrass, Large [3, 27]: 0 | Plant response rating, Crabgrass, Large [3, 28]: 20 | Plant response rating, Dayflower, VA [4, 17]: 60 | Plant response rating, Dayflower, VA [4, 18]: 10 | Plant response rating, Dayflower, VA [4, 19]: 75 | Plant response rating, Dayflower, VA [4, 20]: 25 | Plant response rating, Dayflower, VA [4, 21]: 70 | Plant response rating, Dayflower, VA [4, 22]: 50 | Plant response rating, Dayflower, VA [4, 23]: 0 | Plant response rating, Dayflower, VA [4, 24]: 65 | Plant response rating, Foxtail, Giant [5, 25]: 98 | Plant response rating, Foxtail, Giant [5, 26]: 100 | Plant response rating, Foxtail, Giant [5, 27]: 95 | Plant response rating, Foxtail, Giant [5, 28]: 100 | Plant response rating, Goosegrass [6, 25]: 0 | Plant response rating, Goosegrass [6, 26]: 5 | Plant response rating, Goosegrass [6, 27]: 0 | Plant response rating, Goosegrass [6, 28]: 25 | Plant response rating, Horseweed [7, 25]: 80 | Plant response rating, Horseweed [7, 26]: 85 | Plant response rating, Horseweed ([7]; 250 g ai/ha, scale 0 to 100 (0 no effect, 100 complete control)): 90 | Plant response rating, Horseweed ([7]; 31 g ai/ha, visual, scale 0 no effect to 100 complete control): 75 | Plant response rating, Lambsquarters [8, 25]: 98 | Plant response rating, Lambsquarters [8, 26]: 100 | Plant response rating, Lambsquarters [8, 27]: 100 | Plant response rating, Lambsquarters [8, 28]: 100 | Plant response rating, Morningglory [9, 25]: 20 | Plant response rating, Morningglory [9, 26]: 95 | Plant response rating, Morningglory [9, 27]: 25 | Plant response rating, Morningglory [9, 28]: 100 | Plant response rating, Nightshade [10, 25]: 50 | Plant response rating, Nightshade [10, 26]: 100 | Plant response rating, Nightshade [10, 27]: 35 | Plant response rating, Nightshade [10, 28]: 100 | Plant response rating, Panicum, Fall [11, 17]: 70 | Plant response rating, Panicum, Fall [11, 18]: 95 | Plant response rating, Panicum, Fall [11, 19]: 80 | Plant response rating, Panicum, Fall [11, 20]: 100 | Plant response rating, Panicum, Fall [11, 21]: 90 | Plant response rating, Panicum, Fall [11, 22]: 70 | Plant response rating, Panicum, Fall [11, 23]: 90 | Plant response rating, Panicum, Fall [11, 24]: 98 | Plant response rating, Pigweed, Palmer [12, 17]: 40 | Plant response rating, Pigweed, Palmer [12, 18]: 20 | Plant response rating, Pigweed, Palmer [12, 19]: 50 | Plant response rating, Pigweed, Palmer [12, 20]: 50 | Plant response rating, Pigweed, Palmer [12, 21]: 60 | Plant response rating, Pigweed, Palmer [12, 22]: 40 | Plant response rating, Pigweed, Palmer [12, 23]: 0 | Plant response rating, Pigweed, Palmer [12, 24]: 80 | Plant response rating, Ragweed [13, 17]: 50 | Plant response rating, Ragweed [13, 18]: 75 | Plant response rating, Ragweed [13, 19]: 70 | Plant response rating, Ragweed [13, 20]: 95 | Plant response rating, Ragweed [13, 21]: 75 | Plant response rating, Ragweed [13, 22]: 60 | Plant response rating, Ragweed [13, 23]: 70 | Plant response rating, Ragweed [13, 24]: 98 | Plant response rating, Sandbur [14, 18]: 70 | Plant response rating, Sandbur [14, 19]: 65 | Plant response rating, Sandbur [14, 20]: 75 | Plant response rating, Sandbur [14, 21]: 70 | Plant response rating, Sandbur [14, 22]: 40 | Plant response rating, Sandbur [14, 23]: 20 | Plant response rating, Sandbur [14, 24]: 80 | Plant response rating, Surinam Grass [15, 25]: 60 | Plant response rating, Surinam Grass [15, 26]: 85 | Plant response rating, Surinam Grass [15, 27]: 65 | Plant response rating, Surinam Grass [15, 28]: 95 | Plant response rating, Velvetleaf [16, 25]: 35 | Plant response rating, Velvetleaf [16, 26]: 70 | Plant response rating, Velvetleaf [16, 27]: 0 | Plant response rating, Velvetleaf [16, 28]: 100

From patent US10597388B2, “Pyridazinone herbicides” (FMC CORPORATION, priority 2014, dated 2020)
